Data from US20240159750A1, “METHODS FOR DIAGNOSIS AND TREATMENT OF COVID-19” (priority 2021, published 2024).

Legend:
C2 and PC cells = type: cell-based, rat; settings: serum-starved C2 cells (TYMP-overexpressing VSMC)
[1] = tested on: hospitalized COVID-19 patients; settings: interim report, WHO solidarity trial; cited from earlier work

Compound	NF-κB activation (p65 phosphorylation at T254) (C2 and PC cells)	effect on hospitalized COVID-19 patients [1]
Pam3CSK4	dramatically increased	–
CCN(CCO)CCCC(C)Nc1ccnc2cc(Cl)ccc12 (stereo not drawn) [hydroxychloroquine]	–	little or no effect
Cc1cccc(C)c1OCC(=O)N[C@@H](Cc1ccccc1)[C@@H](O)C[C@H](Cc1ccccc1)NC(=O)[C@H](C(C)C)N1CCCNC1=O [lopinavir]	–	little or no effect
